{"source": "the supplement of paper PMC10307832", "experiment_in_all_cases": "relative viability (nuclei count vs DMSO), 5 days (fraction); higher = more cells survive", "key": {"NCI-H1666": {"test_system": "NCI-H1666", "outline": "(§1)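 The day after seeding in 1536-well plates, lung cancer cell lines were treated by pin tool with a single drug, or with a fixed anchor-drug dose together with five library-drug doses (not always all listed) in √10 steps. After 5 days, a combined fix-and-stain solution (final 0.05% Triton X-100, 1% formaldehyde, 1 ug/ml Hoechst) was added. Nuclei counted on 4× images gave relative viability as treated counts over vehicle counts, reported as the median of duplicate plates.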"}, "NCI-H23": {"test_system": "NCI-H23", "outline": "as §1"}, "HCC-78": {"test_system": "HCC-78", "outline": "as §1"}, "NCI-H2126": {"test_system": "NCI-H2126", "outline": "as §1"}, "NCI-H650": {"test_system": "NCI-H650", "outline": "as §1"}, "NCI-H520": {"test_system": "NCI-H520", "outline": "as §1"}, "NCI-H661": {"test_system": "NCI-H661", "outline": "as §1"}, "LC-2-ad": {"test_system": "LC-2-ad", "outline": "as §1"}, "RERF-LC-KJ": {"test_system": "RERF-LC-KJ", "outline": "as §1"}, "HCC-827": {"test_system": "HCC-827", "outline": "as §1"}, "NCI-H1915": {"test_system": "NCI-H1915", "outline": "as §1"}, "NCI-H2087": {"test_system": "NCI-H2087", "outline": "as §1"}}}
{"smiles": "Oc1nc(-c2ccc(C(F)(F)F)cc2)nc2c1CSCC2", "note": "[XAV939] + COc1cc2c(Oc3ccc(NC(=O)C4(C(=O)Nc5ccc(F)cc5)CC4)cc3F)ccnc2cc1OCCCN1CCOCC1 [Foretinib] (partner 0.25 µM)", "values": [{"measurement": "relative viability", "setting": "NCI-H1666; first compound 0.08 µM", "value": 0.99}, {"measurement": "relative viability", "setting": "NCI-H1666; first compound 0.253 µM", "value": 0.919}, {"measurement": "relative viability", "setting": "NCI-H1666; first compound 0.8 µM", "value": 0.908}, {"measurement": "relative viability", "setting": "NCI-H1666; first compound 2.53 µM", "value": 0.952}, {"measurement": "relative viability", "setting": "NCI-H23; first compound 0.08 µM", "value": 1.08}, {"measurement": "relative viability", "setting": "NCI-H23; first compound 0.253 µM", "value": 0.844}, {"measurement": "relative viability", "setting": "NCI-H23; first compound 0.8 µM", "value": 0.868}, {"measurement": "relative viability", "setting": "NCI-H23; first compound 2.53 µM", "value": 0.962}, {"measurement": "relative viability", "setting": "HCC-78; first compound 0.08 µM", "value": 0.591}, {"measurement": "relative viability", "setting": "HCC-78; first compound 0.253 µM", "value": 0.552}, {"measurement": "relative viability", "setting": "HCC-78; first compound 0.8 µM", "value": 0.552}, {"measurement": "relative viability", "setting": "HCC-78; first compound 2.53 µM", "value": 0.506}, {"measurement": "relative viability", "setting": "NCI-H2126; first compound 0.08 µM", "value": 1.1}, {"measurement": "relative viability", "setting": "NCI-H2126; first compound 0.253 µM", "value": 0.989}, {"measurement": "relative viability", "setting": "NCI-H2126; first compound 0.8 µM", "value": 1.17}, {"measurement": "relative viability", "setting": "NCI-H2126; first compound 2.53 µM", "value": 0.725}, {"measurement": "relative viability", "setting": "NCI-H650; first compound 0.08 µM", "value": 1.16}, {"measurement": "relative viability", "setting": "NCI-H650; first compound 0.253 µM", "value": 0.991}, {"measurement": "relative viability", "setting": "NCI-H650; first compound 0.8 µM", "value": 1.09}, {"measurement": "relative viability", "setting": "NCI-H650; first compound 2.53 µM", "value": 0.857}, {"measurement": "relative viability", "setting": "NCI-H520; first compound 0.08 µM", "value": 0.781}, {"measurement": "relative viability", "setting": "NCI-H520; first compound 0.253 µM", "value": 0.694}, {"measurement": "relative viability", "setting": "NCI-H520; first compound 0.8 µM", "value": 0.677}, {"measurement": "relative viability", "setting": "NCI-H520; first compound 2.53 µM", "value": 0.626}, {"measurement": "relative viability", "setting": "NCI-H661; first compound 0.08 µM", "value": 1.01}, {"measurement": "relative viability", "setting": "NCI-H661; first compound 0.253 µM", "value": 0.991}, {"measurement": "relative viability", "setting": "NCI-H661; first compound 0.8 µM", "value": 0.993}, {"measurement": "relative viability", "setting": "NCI-H661; first compound 2.53 µM", "value": 0.929}, {"measurement": "relative viability", "setting": "LC-2-ad; first compound 0.08 µM", "value": 1}, {"measurement": "relative viability", "setting": "LC-2-ad; first compound 0.253 µM", "value": 0.854}, {"measurement": "relative viability", "setting": "LC-2-ad; first compound 0.8 µM", "value": 0.911}, {"measurement": "relative viability", "setting": "LC-2-ad; first compound 2.53 µM", "value": 0.843}, {"measurement": "relative viability", "setting": "RERF-LC-KJ; first compound 0.08 µM", "value": 0.781}, {"measurement": "relative viability", "setting": "RERF-LC-KJ; first compound 0.253 µM", "value": 0.738}, {"measurement": "relative viability", "setting": "RERF-LC-KJ; first compound 0.8 µM", "value": 0.792}, {"measurement": "relative viability", "setting": "RERF-LC-KJ; first compound 2.53 µM", "value": 0.681}, {"measurement": "relative viability", "setting": "HCC-827; first compound 0.08 µM", "value": 1.11}, {"measurement": "relative viability", "setting": "HCC-827; first compound 0.253 µM", "value": 0.996}, {"measurement": "relative viability", "setting": "HCC-827; first compound 0.8 µM", "value": 1.06}, {"measurement": "relative viability", "setting": "HCC-827; first compound 2.53 µM", "value": 0.989}, {"measurement": "relative viability", "setting": "NCI-H1915; first compound 0.08 µM", "value": 1.18}, {"measurement": "relative viability", "setting": "NCI-H1915; first compound 0.253 µM", "value": 1.11}, {"measurement": "relative viability", "setting": "NCI-H1915; first compound 0.8 µM", "value": 1.08}, {"measurement": "relative viability", "setting": "NCI-H1915; first compound 2.53 µM", "value": 1.03}, {"measurement": "relative viability", "setting": "NCI-H2087; first compound 0.08 µM", "value": 1.04}, {"measurement": "relative viability", "setting": "NCI-H2087; first compound 0.253 µM", "value": 1.03}]}
